# What was measured:
# Danio rerio embryo/larva [1] = assay: BMC mortality; max tested concentration (log10 uM): 2; higher = less potent; conditions: exposure: 6-8 hpf to 5 dpf, scored at 6 dpf
# Procedure: (§1)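 Zebrafish embryos (with chorion) were exposed from 6-8 hpf to each PFAS (8-point half-log series, top concentration up to 100 uM, 0.4% DMSO, sealed plates, 26 C; n = 6 embryos per concentration), rinsed at 5 dpf and scored at 6 dpf by two blinded observers for mortality, hatching and malformations. Endpoint scores are the % of living larvae affected (dead larvae excluded; […]). Curves were fitted with tcpl (cutoff 16%), and the BMC is the concentration at a benchmark response of 21.6%.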
# Danio rerio embryo/larva [2] = assay: max % larvae with any abnormality across tested concentrations; max tested concentration (log10 uM): 2; higher = more toxic; extreme values may be limits of the assay; conditions: exposure: 6-8 hpf to 5 dpf, scored at 6 dpf
# Danio rerio embryo/larva [3] = assay: BMC any abnormality; max tested concentration (log10 uM): 2; higher = less potent; conditions: exposure: 6-8 hpf to 5 dpf, scored at 6 dpf
# Procedure: as §1
# Danio rerio embryo/larva [4] = assay: max % larvae dead across tested concentrations; max tested concentration (log10 uM): 2; higher = more toxic; extreme values may be limits of the assay; conditions: exposure: 6-8 hpf to 5 dpf, scored at 6 dpf
# Danio rerio embryo/larva [5] = assay: max % larvae unhatched across tested concentrations; max tested concentration (log10 uM): 2; higher = more toxic; conditions: exposure: 6-8 hpf to 5 dpf, scored at 6 dpf
# Danio rerio embryo/larva [6] = assay: BMC edema; higher = less potent; conditions: exposure: 6-8 hpf to 5 dpf, scored at 6 dpf
# Procedure: as §1
# Danio rerio embryo/larva [7] = assay: BMC swim bladder non-inflation; higher = less potent; conditions: exposure: 6-8 hpf to 5 dpf, scored at 6 dpf
# Procedure: as §1
# Danio rerio embryo/larva [8] = assay: BMC craniofacial defects; higher = less potent; conditions: max tested concentration (log10 uM): 0.477121; exposure: 6-8 hpf to 5 dpf, scored at 6 dpf
# Procedure: as §1
# Danio rerio embryo/larva [9] = assay: max % larvae with blood pooling across tested concentrations; higher = more toxic; extreme values may be limits of the assay; conditions: exposure: 6-8 hpf to 5 dpf, scored at 6 dpf
# Danio rerio embryo/larva [10] = assay: max % larvae with spinal defects across tested concentrations; higher = more toxic; extreme values may be limits of the assay; conditions: exposure: 6-8 hpf to 5 dpf, scored at 6 dpf
# Danio rerio embryo/larva [11] = assay: max % larvae with edema across tested concentrations; higher = more toxic; extreme values may be limits of the assay; conditions: exposure: 6-8 hpf to 5 dpf, scored at 6 dpf
# Danio rerio embryo/larva [12] = assay: max % larvae with abnormal position across tested concentrations; higher = more toxic; extreme values may be limits of the assay; conditions: exposure: 6-8 hpf to 5 dpf, scored at 6 dpf
# Danio rerio embryo/larva [13] = assay: max % larvae generally abnormal across tested concentrations; higher = more toxic; extreme values may be limits of the assay; conditions: exposure: 6-8 hpf to 5 dpf, scored at 6 dpf
# Danio rerio embryo/larva [14] = assay: max % larvae with tail defects across tested concentrations; higher = more toxic; extreme values may be limits of the assay; conditions: exposure: 6-8 hpf to 5 dpf, scored at 6 dpf
# Danio rerio embryo/larva [15] = assay: BMC general abnormality; higher = less potent; conditions: exposure: 6-8 hpf to 5 dpf, scored at 6 dpf
# Procedure: as §1
# Danio rerio embryo/larva [16] = assay: max % larvae with uninflated swim bladder across tested concentrations; higher = more toxic; extreme values may be limits of the assay; conditions: exposure: 6-8 hpf to 5 dpf, scored at 6 dpf
# Danio rerio embryo/larva [17] = assay: max % larvae with pigmentation defects across tested concentrations; higher = more toxic; conditions: exposure: 6-8 hpf to 5 dpf, scored at 6 dpf
# Danio rerio embryo/larva [18] = assay: max % larvae with craniofacial defects across tested concentrations; higher = more toxic; extreme values may be limits of the assay; conditions: exposure: 6-8 hpf to 5 dpf, scored at 6 dpf
# [19] = max tested concentration (log10 uM): 1
# [20] = max tested concentration (log10 uM): 1.47712
# [21] = max tested concentration (log10 uM): 0.477121
Structure (SMILES),BMC mortality (Danio rerio embryo/larva [1]) [µM],max % larvae (Danio rerio embryo/larva [2]) [%],BMC any abnormality (Danio rerio embryo/larva [3]) [µM],max % larvae dead across tested concentrations (Danio rerio embryo/larva [4]) [%],max % larvae unhatched across tested concentrations (Danio rerio embryo/larva [5]) [%],other results
C[N+](C)(C)CCCNS(=O)(=O)C(F)(F)C(F)(F)C(F)(F)C(F)(F)C(F)(F)C(F)(F)C(F)(F)C(F)(F)F,19.8,100,22.3,100,0,
CCNS(=O)(=O)C(F)(F)C(F)(F)C(F)(F)C(F)(F)C(F)(F)C(F)(F)C(F)(F)C(F)(F)F [N-Ethylperfluorooctane sulfonamide],19.5,100,2.37,100,0,BMC edema (Danio rerio embryo/larva [6]; [19]): 2.88 µM; BMC swim bladder non-inflation (Danio rerio embryo/larva [7]; [19]): 3.13 µM
O=C(O)C(F)(F)C(F)(F)C(F)(F)C(F)(F)C(F)(F)C(F)(F)C(F)(F)C(F)(F)C(F)(F)F [Perfluorodecanoic acid],11.2,100,9.34,100,0,BMC swim bladder non-inflation (Danio rerio embryo/larva [7]; [20]): 10.1 µM
OCCC(F)(F)C(F)(F)C(F)(F)C(F)(F)C(F)(F)C(F)(F)C(F)(F)C(F)(F)F [2-(Perfluorooctyl)ethanol],89,58.3,,25,0,
"O=C(O)C(F)(F)OC(F)(F)C(F)(F)OC(F)(F)C(F)(F)C(F)(F)C(F)(F)F [Perfluoro-3,6-dioxadecanoic acid]",75.3,91.7,,66.7,0,
O=C(O)C(F)(F)C(F)(F)C(F)(F)C(F)(F)C(F)(F)C(F)(F)C(F)(F)C(F)(F)C(F)(F)C(F)F [11-H-Perfluoroundecanoic acid],11.2,100,12.9,100,0,BMC edema (Danio rerio embryo/larva [6]; [20]): 12.6 µM
N=C(N)C(F)(F)C(F)(F)C(F)(F)C(F)(F)C(F)(F)C(F)(F)C(F)(F)F [Perfluorooctanamidine],19.5,100,19.5,100,0,
"C=CC(=O)OCC(F)(F)C(F)(F)C(F)(F)C(F)(F)COC(=O)C=C [1H,1H,6H,6H-Perfluorohexane-1,6-diol diacrylate]",8.28,100,1.52,100,0,BMC edema (Danio rerio embryo/larva [6]; [19]): 8.94 µM; BMC swim bladder non-inflation (Danio rerio embryo/larva [7]; [19]): 2.81 µM
O=C(O)C(F)(F)C(F)(F)C(F)(F)C(F)(F)C(F)(F)C(F)(F)C(F)(F)C(F)(F)C(F)(F)C(F)(F)F [Perfluoroundecanoic acid],14.5,100,2.94,100,0,BMC edema (Danio rerio embryo/larva [6]; [21]): 2.74 µM
O=C(CC(=O)C(F)(F)C(F)(F)C(F)(F)F)c1cccs1 [(Perfluorobutyryl)-2-thenoylmethane],6.44,100,3.11,100,0,
"C=CC(=O)OCC(F)(F)C(F)(F)C(F)(F)COC(=O)C=C [1H,1H,5H,5H-Perfluoro-1,5-pentanediol diacrylate]",8.77,100,7.62,100,0,
"OCC(F)(F)C(F)(F)C(F)(F)C(F)(F)C(F)(F)C(F)(F)C(F)(F)C(F)(F)CO [1H,1H,10H,10H-Perfluorodecane-1,10-diol]",19.5,100,4.08,100,0,BMC swim bladder non-inflation (Danio rerio embryo/larva [7]; [19]): 3.47 µM
OC(C(F)(F)F)(C(F)(F)F)C(O)(C(F)(F)F)C(F)(F)F [Perfluoropinacol],,100,1.94,,0,BMC edema (Danio rerio embryo/larva [6]; [21]): 2.52 µM; BMC swim bladder non-inflation (Danio rerio embryo/larva [7]; [21]): 2.28 µM; BMC craniofacial defects (Danio rerio embryo/larva [8]): 2.47 µM
OCCC(F)(F)C(F)(F)C(F)(F)C(F)(F)C(F)(F)C(F)(F)F [2-(Perfluorohexyl)ethanol] (max tested concentration (log10 uM): 2),,,,,,max % larvae (Danio rerio embryo/larva [9]): 0%; max % larvae (Danio rerio embryo/larva [10]): 6.82%; max % larvae (Danio rerio embryo/larva [11]): 79.5%; max % larvae (Danio rerio embryo/larva [12]): 11.4%; max % larvae generally abnormal across tested concentrations (Danio rerio embryo/larva [13]): 79.5%; max % larvae (Danio rerio embryo/larva [14]): 13.6%; BMC general abnormality (Danio rerio embryo/larva [15]): 3.37 µM; max % larvae (Danio rerio embryo/larva [16]): 81.8%; max % larvae (Danio rerio embryo/larva [17]): 0%; max % larvae (Danio rerio embryo/larva [18]): 68.2%
O=P(O)(O)CCC(F)(F)C(F)(F)C(F)(F)C(F)(F)C(F)(F)C(F)(F)C(F)(F)C(F)(F)F [((Perfluorooctyl)ethyl)phosphonic acid] (max tested concentration (log10 uM): 2),,,,,,max % larvae (Danio rerio embryo/larva [9]): 0%; max % larvae (Danio rerio embryo/larva [10]): 0%; max % larvae (Danio rerio embryo/larva [11]): 50%; max % larvae (Danio rerio embryo/larva [12]): 50%; max % larvae generally abnormal across tested concentrations (Danio rerio embryo/larva [13]): 60%; max % larvae (Danio rerio embryo/larva [14]): 5%; BMC general abnormality (Danio rerio embryo/larva [15]): 1.31 µM; max % larvae (Danio rerio embryo/larva [16]): 100%; max % larvae (Danio rerio embryo/larva [17]): 0%; max % larvae (Danio rerio embryo/larva [18]): 20%
CNS(=O)(=O)C(F)(F)C(F)(F)C(F)(F)C(F)(F)C(F)(F)C(F)(F)C(F)(F)C(F)(F)F [N-Methylperfluorooctanesulfonamide] (max tested concentration (log10 uM): 2),,,,,,max % larvae (Danio rerio embryo/larva [9]): 0%; max % larvae (Danio rerio embryo/larva [10]): 0%; max % larvae (Danio rerio embryo/larva [11]): 36.4%; max % larvae (Danio rerio embryo/larva [12]): 8.33%; max % larvae generally abnormal across tested concentrations (Danio rerio embryo/larva [13]): 50%; max % larvae (Danio rerio embryo/larva [14]): 0%; BMC general abnormality (Danio rerio embryo/larva [15]): 0.968 µM; max % larvae (Danio rerio embryo/larva [16]): 90.9%; max % larvae (Danio rerio embryo/larva [17]): 0%; max % larvae (Danio rerio embryo/larva [18]): 18.2%
O=C(O)CCC(F)(F)C(F)(F)C(F)(F)C(F)(F)C(F)(F)C(F)(F)F [3-(Perfluorohexyl)propanoic acid],19.5,100,8.2,100,0,BMC edema (Danio rerio embryo/larva [6]; [19]): 9.01 µM

# Source: the supplement of paper PMC11281043
